Measurements taken from ChEMBL document CHEMBL1201862, “PubChem BioAssay data set” (2004).
The source made the active and inactive calls.

Assays:
Phospholipase A2 = Phospholipase A2 (Homo sapiens, UniProt P04054); type: functional;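 note: confirmatory dose-response counterscreen on phospholipase A2, testing hits that came from an ultra-high-throughput screen for ATG4B inhibitors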
[1] = cytotoxicity in KRAS-transformed pancreatic duct cells, primary screen, cell-based, fluorescence, HTS (AID 431); type: functional; settings: Homo sapiens;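 note: cell line used: HPDE-C7K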
Large T antigen = Large T antigen (Simian virus 40, UniProt P03070); type: functional, Betapolyomavirus macacae;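 note: Confirmatory-stage PubChem screen for compounds that inhibit SV40 T antigen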
Ephrin type-A receptor 4 = Ephrin type-A receptor 4 (Mus musculus, UniProt Q03137); experiment: inhibitors of EphA4 binding to KYL peptide, primary screen, biochemical, colorimetric, mouse EphA4 (AID 689); type: functional
[2] = biological target: T1, Tyrosine-protein phosphatase non-receptor type 7 (Homo sapiens, UniProt P35236); type: functional
T1 sequence (P35236 whole entry): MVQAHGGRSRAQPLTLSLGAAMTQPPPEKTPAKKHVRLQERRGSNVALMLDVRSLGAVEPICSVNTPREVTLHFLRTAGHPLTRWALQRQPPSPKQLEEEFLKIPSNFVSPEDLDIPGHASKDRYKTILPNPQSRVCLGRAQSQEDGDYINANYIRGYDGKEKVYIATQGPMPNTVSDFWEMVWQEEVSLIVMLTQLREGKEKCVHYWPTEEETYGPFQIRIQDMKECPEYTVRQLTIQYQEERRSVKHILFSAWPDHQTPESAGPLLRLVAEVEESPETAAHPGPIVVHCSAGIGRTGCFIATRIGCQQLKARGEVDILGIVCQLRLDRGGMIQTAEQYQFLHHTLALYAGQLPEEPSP

Cysteine protease ATG4B = biological target: T2, Cysteine protease ATG4B (Homo sapiens, UniProt Q9Y4P1); type: functional;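 note: Fluorescence-based dose-response confirmation assay measuring inhibition of ATG4B activity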
T2 sequence (Q9Y4P1 whole entry): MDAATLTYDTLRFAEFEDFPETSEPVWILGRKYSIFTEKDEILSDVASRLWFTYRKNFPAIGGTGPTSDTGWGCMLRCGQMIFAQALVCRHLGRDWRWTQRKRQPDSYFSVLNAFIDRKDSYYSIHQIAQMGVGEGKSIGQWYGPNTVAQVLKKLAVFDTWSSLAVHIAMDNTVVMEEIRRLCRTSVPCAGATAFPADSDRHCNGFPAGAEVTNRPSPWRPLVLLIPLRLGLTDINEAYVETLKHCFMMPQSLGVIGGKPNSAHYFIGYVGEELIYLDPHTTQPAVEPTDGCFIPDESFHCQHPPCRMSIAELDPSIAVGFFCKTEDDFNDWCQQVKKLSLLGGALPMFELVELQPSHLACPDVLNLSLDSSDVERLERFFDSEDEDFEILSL

[3] = biological target: T3, Dual specificity protein phosphatase 6 (Rattus norvegicus, UniProt Q64346)
T3 sequence (Q64346 whole entry): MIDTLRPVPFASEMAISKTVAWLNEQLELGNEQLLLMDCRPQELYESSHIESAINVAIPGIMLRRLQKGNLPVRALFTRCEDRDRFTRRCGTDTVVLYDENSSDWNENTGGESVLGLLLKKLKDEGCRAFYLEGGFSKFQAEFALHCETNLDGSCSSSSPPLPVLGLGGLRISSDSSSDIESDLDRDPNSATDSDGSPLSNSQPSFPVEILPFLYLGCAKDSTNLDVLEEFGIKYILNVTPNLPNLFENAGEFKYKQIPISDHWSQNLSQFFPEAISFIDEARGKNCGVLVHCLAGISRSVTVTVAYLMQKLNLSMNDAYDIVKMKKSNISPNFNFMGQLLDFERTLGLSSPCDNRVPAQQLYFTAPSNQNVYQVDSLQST

[4] = biological target: Glyceraldehyde-3-phosphate dehydrogenase (Homo sapiens, UniProt P04406)
[5] = biological target: T3, Dual specificity protein phosphatase 6; type: functional
[6] = cytotoxicity in HPDE-C7 cells, cell-based, fluorescence, HTS (AID 430); type: functional; settings: Homo sapiens
[7] = biological target: T1, Tyrosine-protein phosphatase non-receptor type 7; experiment: redox-dependent HePTP inhibition, mechanism study, biochemical, fluorescence (AID 2068); type: functional
[8] = biological target: Dual specificity protein phosphatase 3 (Homo sapiens, UniProt P51452); experiment: SAR VHR1 Fluorescent Assay for In Vitro dose response studies. [Related pubchem assays (depositor defined):AID1654, AID1661, AID1878, AID1992, AID2004, AID2070, AID2085]; type: functional
T-cell = experiment: inhibitors of CD8+ T cell–vesicle binding, dose response, mouse 2C CD8+ T cells, flow cytometry (AID 485284); type: functional
[9] = biological target: T4, Short transient receptor potential channel 4 (Mus musculus, UniProt Q9QUQ5); experiment: TRPC4 positive allosteric modulators, dose response, cell-based, HEK293 TRPC4/mu-opioid, Fluo-4 calcium, EC20 DAMGO (AID 434941); type: functional
T4 sequence (Q9QUQ5 whole entry): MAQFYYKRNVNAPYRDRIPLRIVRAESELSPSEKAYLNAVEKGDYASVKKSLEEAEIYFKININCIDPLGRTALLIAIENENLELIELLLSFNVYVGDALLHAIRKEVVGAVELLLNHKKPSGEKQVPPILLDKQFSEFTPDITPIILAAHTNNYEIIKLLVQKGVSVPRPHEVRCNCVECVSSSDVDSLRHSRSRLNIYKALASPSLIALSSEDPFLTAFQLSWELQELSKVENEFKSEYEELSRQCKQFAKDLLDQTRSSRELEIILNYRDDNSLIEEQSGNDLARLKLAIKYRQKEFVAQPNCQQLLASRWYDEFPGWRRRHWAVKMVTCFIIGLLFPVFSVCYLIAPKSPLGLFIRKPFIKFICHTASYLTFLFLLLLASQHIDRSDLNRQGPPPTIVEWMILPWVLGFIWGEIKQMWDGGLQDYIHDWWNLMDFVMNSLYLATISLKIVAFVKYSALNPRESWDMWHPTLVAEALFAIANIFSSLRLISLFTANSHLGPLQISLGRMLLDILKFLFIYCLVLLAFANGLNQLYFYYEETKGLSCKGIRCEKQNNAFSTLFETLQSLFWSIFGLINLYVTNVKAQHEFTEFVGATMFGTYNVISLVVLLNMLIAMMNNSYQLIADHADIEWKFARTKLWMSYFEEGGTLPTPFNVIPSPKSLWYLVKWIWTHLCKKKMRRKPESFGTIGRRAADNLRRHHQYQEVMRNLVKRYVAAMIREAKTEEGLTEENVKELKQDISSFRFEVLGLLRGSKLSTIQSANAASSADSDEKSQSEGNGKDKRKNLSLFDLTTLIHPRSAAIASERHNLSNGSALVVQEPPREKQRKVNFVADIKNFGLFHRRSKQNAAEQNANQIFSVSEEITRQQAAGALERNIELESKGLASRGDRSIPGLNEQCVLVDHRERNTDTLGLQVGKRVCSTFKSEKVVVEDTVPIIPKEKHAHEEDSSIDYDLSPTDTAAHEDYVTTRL

[10] = biological target: T5, Ubiquitin-conjugating enzyme E2 N (Homo sapiens, UniProt P61088); type: functional;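 note: Dose-response confirmation in a TR-FRET assay detecting UBC13-driven polyubiquitin chain formation, inhibition measured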
T5 sequence (P61088 whole entry): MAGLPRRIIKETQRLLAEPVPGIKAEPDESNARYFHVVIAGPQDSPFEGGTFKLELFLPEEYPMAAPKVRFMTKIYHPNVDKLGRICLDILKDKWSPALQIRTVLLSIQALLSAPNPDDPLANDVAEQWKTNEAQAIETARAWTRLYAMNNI

[11] = inhibitors of intracellular T. cruzi replication, confirmation, NIH3T3 host cells, beta-gal luminescence (AID 2044); type: functional, cell-based;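 note: intracellular parasites grown in NIH/3T3 mouse fibroblasts as host cells; luminescent beta-galactosidase reporter signal from transgenic T. cruzi replicating inside host cells; inhibitors lower the luminescence signal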
Vero = experiment: host cell cytotoxicity of antiviral hits, dose response, cytotoxicity control for West Nile virus antiviral project, secondary assay (AID 1650); type: functional; settings: Chlorocebus sabaeus
[12] = cytotoxicity toward NIH3T3 fibroblasts, dose response, counter-screen, cell-based, ATP luminescence, mouse fibroblasts (AID 2010); type: functional;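 note: cells exposed to compound for about 90 hours before reading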
[13] = biological target: T6, Rac GTPase-activating protein 1 (Homo sapiens, UniProt Q9H0H5); experiment: MgcRacGAP GTPase-activating activity inhibitors, confirmation, biochemical, ADP Hunter fluorescence, primary and confirmatory (AID 624330); type: functional
T6 sequence (Q9H0H5 whole entry): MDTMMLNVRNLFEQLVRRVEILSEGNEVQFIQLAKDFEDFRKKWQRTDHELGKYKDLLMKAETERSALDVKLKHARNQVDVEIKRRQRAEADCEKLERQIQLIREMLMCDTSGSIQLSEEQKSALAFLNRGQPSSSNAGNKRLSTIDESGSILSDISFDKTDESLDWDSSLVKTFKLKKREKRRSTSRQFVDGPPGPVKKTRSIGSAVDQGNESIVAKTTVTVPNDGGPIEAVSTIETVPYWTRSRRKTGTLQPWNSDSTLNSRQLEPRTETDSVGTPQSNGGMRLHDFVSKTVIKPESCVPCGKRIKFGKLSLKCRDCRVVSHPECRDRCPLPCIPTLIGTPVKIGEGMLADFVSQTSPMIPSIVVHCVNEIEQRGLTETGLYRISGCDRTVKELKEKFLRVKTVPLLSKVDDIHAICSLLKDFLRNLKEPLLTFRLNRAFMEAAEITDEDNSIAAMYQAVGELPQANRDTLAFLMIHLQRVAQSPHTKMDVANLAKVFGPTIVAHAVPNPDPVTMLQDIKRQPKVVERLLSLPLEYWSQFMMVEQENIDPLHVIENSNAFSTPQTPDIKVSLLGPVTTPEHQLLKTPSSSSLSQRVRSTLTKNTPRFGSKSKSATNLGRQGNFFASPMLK

Troponin, cardiac muscle = Troponin, cardiac muscle (Homo sapiens, UniProt P19429+P45379+P63316); experiment: inhibitors of cardiac thin filament calcium sensitivity, dose response, biochemical, fluorescence, cardiac regulated thin filaments, triplicate IC50 (AID 504742); type: protein-complex assay
ORF 73 = biological target: T7, ORF 73 (Human herpesvirus 8, UniProt O40947); experiment: inhibitors of C-LANA binding to LBS DNA, dose response, biochemical, fluorescence polarization, cherry-picked samples (AID 504725); set-up: species or system Human gammaherpesvirus 8;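 note: fluorescence polarization of a labeled DNA duplex reporting LANA DNA binding; potency is for inhibitors that block LANA binding to the DNA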
T7 sequence (O40947 whole entry): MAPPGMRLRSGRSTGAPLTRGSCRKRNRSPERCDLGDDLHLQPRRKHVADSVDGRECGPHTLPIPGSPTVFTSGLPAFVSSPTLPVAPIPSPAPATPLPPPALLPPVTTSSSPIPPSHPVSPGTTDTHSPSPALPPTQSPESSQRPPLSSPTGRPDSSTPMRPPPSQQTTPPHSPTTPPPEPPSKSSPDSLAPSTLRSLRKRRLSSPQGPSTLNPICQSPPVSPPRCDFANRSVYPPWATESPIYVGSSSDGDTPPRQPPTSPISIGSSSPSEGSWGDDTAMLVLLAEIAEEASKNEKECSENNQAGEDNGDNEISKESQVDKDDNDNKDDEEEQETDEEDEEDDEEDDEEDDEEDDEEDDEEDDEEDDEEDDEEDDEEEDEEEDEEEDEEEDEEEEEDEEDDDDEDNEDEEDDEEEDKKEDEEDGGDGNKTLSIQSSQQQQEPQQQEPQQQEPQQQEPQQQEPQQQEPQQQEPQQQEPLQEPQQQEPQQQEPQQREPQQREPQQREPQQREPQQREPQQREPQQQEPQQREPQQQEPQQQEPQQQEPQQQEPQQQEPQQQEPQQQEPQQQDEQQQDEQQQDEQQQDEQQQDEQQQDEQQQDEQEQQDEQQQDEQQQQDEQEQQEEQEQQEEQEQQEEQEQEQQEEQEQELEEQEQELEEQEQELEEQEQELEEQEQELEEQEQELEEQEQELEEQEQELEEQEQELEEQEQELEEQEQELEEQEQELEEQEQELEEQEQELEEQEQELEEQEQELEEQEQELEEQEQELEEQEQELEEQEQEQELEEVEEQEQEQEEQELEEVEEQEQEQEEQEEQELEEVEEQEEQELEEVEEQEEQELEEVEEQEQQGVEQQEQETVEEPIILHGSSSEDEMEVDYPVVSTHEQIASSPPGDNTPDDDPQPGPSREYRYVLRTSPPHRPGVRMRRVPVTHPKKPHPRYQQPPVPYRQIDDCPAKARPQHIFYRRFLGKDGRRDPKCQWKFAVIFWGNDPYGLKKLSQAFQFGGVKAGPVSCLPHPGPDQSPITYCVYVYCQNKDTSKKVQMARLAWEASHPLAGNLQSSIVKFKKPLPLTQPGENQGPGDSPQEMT

Chain of Large T antigen (P03070 whole entry): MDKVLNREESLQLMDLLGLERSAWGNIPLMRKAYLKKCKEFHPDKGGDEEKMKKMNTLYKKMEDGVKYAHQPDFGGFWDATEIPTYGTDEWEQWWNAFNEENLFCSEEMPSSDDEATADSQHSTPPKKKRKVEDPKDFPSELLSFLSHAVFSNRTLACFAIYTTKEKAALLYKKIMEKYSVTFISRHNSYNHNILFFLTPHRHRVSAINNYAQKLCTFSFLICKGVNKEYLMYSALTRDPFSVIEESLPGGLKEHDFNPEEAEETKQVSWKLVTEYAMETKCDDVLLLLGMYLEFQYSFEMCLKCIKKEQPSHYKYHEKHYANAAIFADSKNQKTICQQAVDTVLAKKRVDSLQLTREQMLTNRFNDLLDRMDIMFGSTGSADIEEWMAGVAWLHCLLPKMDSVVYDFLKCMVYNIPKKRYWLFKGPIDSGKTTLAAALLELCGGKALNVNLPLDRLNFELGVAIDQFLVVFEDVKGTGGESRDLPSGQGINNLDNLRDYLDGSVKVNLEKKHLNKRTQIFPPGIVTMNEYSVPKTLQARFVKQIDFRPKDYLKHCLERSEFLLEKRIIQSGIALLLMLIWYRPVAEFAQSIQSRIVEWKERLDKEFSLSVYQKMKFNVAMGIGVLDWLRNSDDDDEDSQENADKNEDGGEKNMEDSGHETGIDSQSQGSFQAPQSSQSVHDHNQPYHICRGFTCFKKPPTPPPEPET
Chain of Phospholipase A2 (P04054 whole entry): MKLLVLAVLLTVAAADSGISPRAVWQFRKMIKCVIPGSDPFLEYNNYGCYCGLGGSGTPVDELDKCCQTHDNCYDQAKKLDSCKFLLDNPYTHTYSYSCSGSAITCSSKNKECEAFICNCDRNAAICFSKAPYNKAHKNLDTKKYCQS
Chain of Dual specificity protein phosphatase 3 (P51452 whole entry): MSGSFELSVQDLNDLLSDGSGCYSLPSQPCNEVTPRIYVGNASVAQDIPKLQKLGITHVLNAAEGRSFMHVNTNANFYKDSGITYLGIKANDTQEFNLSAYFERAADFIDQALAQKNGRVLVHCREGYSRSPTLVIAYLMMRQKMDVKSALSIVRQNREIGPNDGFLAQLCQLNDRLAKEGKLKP
Chain of Ephrin type-A receptor 4 (Q03137 whole entry): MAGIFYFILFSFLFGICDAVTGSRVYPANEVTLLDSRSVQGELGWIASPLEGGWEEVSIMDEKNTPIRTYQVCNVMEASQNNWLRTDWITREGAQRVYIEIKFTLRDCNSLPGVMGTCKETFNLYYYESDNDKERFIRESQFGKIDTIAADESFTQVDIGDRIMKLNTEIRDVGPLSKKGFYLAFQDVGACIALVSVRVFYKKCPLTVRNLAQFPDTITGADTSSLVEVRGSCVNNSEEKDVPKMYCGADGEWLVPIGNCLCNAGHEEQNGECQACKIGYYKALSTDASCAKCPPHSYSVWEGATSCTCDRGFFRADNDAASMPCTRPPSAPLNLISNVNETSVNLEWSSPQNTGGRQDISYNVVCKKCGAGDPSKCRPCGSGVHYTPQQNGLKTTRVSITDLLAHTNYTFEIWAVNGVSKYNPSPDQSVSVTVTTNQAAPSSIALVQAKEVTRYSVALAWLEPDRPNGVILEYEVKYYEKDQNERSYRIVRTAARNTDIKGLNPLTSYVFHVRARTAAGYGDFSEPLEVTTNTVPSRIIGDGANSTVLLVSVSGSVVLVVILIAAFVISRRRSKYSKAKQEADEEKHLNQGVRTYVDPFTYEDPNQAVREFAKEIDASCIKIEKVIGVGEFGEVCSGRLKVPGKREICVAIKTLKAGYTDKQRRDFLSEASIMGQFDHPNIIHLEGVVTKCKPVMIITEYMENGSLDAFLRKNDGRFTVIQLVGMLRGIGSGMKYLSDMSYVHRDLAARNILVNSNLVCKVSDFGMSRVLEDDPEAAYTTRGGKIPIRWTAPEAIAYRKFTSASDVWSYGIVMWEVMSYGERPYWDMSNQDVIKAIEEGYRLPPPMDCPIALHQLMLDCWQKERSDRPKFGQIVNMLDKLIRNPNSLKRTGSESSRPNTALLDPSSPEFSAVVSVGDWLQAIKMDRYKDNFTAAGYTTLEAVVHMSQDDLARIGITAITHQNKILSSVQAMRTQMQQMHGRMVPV
Chain of Glyceraldehyde-3-phosphate dehydrogenase (P04406 whole entry): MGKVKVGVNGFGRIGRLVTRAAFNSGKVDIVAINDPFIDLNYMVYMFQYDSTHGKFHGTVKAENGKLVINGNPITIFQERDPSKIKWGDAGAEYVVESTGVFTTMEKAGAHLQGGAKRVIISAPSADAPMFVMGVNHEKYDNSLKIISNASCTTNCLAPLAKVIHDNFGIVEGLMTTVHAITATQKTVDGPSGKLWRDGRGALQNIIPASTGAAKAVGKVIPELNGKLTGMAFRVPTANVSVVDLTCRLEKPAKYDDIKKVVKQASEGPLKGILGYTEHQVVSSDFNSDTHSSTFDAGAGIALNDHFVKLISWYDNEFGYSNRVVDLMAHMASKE

SMILES: Clc1ccccc1CSc1nnc(-c2ccco2)c(-c2ccco2)n1
- IC50 (Phospholipase A2): 7.53 µM (active)
- EC50 [1]: 15.4 µM (active)
- IC50 (Large T antigen): 54.4 µM (active)
- IC50 (Ephrin type-A receptor 4): 2.46 µM (active)
- IC50 [2]: 10.4 µM (active)
- IC50 (Cysteine protease ATG4B): 11.4 µM (active)
- IC50 [3]: 31.2 µM (active)
- IC50 [4]: > 100 µM (not active)
- IC50 [5]: 24.2 µM (active)
- EC50 [6]: 15 µM (active)
- IC50 [7]: 0.329 µM (active)
- IC50 [8]: 19.7 µM (active)

SMILES: Cc1cccc(NC(=O)C2CCN(S(=O)(=O)c3c(C)nc(O)nc3O)CC2)c1
- EC50 (T-cell): 8.65 µM (active)

SMILES: Cc1cc2oc(C(=O)N(Cc3ccccc3)C3CCS(=O)(=O)C3)cc(=O)c2cc1Cl (stereo not drawn)
- EC50 [9]: 3.76 µM (active)

SMILES: CCC1(C)NC(=O)N(CC(=O)N2N=C(c3ccccc3)CC2c2ccc(OC)cc2)C1=O (stereo not drawn)
- EC50 (T-cell): 16.1 µM (active)

SMILES: CCCCN(CC)CCNC(=O)c1cc2c(=O)n(C)c3ccccc3c2s1
- EC50 [9]: 0.07 µM (active)
- IC50 [10]: > 20 µM (inactive)
- EC50 [11]: 2.29 µM (active)
- CC50 (Vero): 69 µM (active)
- EC50 [12]: > 60 µM (not active)

SMILES: O=C1C(=Cc2ccco2)CCC1=Cc1ccco1
- IC50 [13]: 32.4 µM (active)
- IC50 (Troponin, cardiac muscle): > 71.5 µM (inactive)
- AC50 (ORF 73): 63 µM (active)
